Source: ChEMBL document CHEMBL4680249, “Discovery of new LXRβ agonists as glioblastoma inhibitors” (Eur J Med Chem, 2020)
Blank lines part the entries; values can stand above or below the molecule they belong to. Activity calls are given as the source filed them. The calls are words filed in the database; no cut-off is given here.

Tests used:
[1] = tested on: U-87 MG; experiment: Antiproliferative activity against human U87 cells overexpressing EGFR variant III measured after 7 days by CCK8 assay; type: functional, cell-based, U-87MG ATCC
[2] = Toxicity in Balb/c nu/nu mouse xenografted with human U87 cells overexpressing EGFR variant III assessed as body weight loss at 50 mg/kg/day, ip for 15 days; type: organism-based; conditions: in vivo, 360 h, time 15 day
[3] = tested on: U-87 MG; experiment: Antitumor activity against human U87 cells overexpressing EGFR variant III xenografted in Balb/c nu/nu mouse assessed as reduction in tumor size at 50 mg/kg/day, ip for 15 days by caliper method; type: functional, organism-based; conditions: U-87MG ATCC, time 15.0 day
[4] = MRT (infinity) in Sprague-Dawley rat at 10 mg/kg, iv measured after 24 hrs by LC-MS/MS analysis; type: ADME, organism-based; conditions: in vivo
[5] = AUC (0 to infinity) in Sprague-Dawley rat at 10 mg/kg, iv measured after 24 hrs by LC-MS/MS analysis; type: ADME, organism-based; set-up: route intravenous, dose 10 mg/kg, time 24 hrs; conditions: in vivo
[6] = Tmax in Sprague-Dawley rat at 10 mg/kg, iv measured after 24 hrs by LC-MS/MS analysis; type: ADME, organism-based; conditions: in vivo
[7] = Half life in Sprague-Dawley rat at 10 mg/kg, iv measured after 24 hrs by LC-MS/MS analysis; type: ADME, organism-based; conditions: in vivo
[8] = AUC (0 to t) in Sprague-Dawley rat at 10 mg/kg, iv measured after 24 hrs by LC-MS/MS analysis; type: ADME, organism-based; set-up: route intravenous, time 24 hrs, dose 10 mg/kg; conditions: in vivo
[9] = Cmax in Sprague-Dawley rat at 10 mg/kg, iv measured after 24 hrs by LC-MS/MS analysis; type: ADME, organism-based; set-up: route intravenous, time 24 hrs, dose 10 mg/kg; conditions: in vivo
[10] = Effect on serum triglyceride level in Balb/c nu/nu mouse xenografted with human U87 cells overexpressing EGFR variant III at 50 mg/kg/day, ip for 15 days; type: ADME, organism-based; conditions: in vivo, 360 h, time 15 day
[11] = tested on: U-251; experiment: Antiproliferative activity against human U-251 cells measured after 7 days by CCK8 assay; conditions: U-251, 168 h
[12] = target: Retinoic acid receptor RXR-alpha/oxysterols receptor LXR-alpha (Homo sapiens, UniProt Q13133)
Retinoic acid receptor RXR-alpha/oxysterols receptor LXR-alpha, sequence (P19793 whole entry): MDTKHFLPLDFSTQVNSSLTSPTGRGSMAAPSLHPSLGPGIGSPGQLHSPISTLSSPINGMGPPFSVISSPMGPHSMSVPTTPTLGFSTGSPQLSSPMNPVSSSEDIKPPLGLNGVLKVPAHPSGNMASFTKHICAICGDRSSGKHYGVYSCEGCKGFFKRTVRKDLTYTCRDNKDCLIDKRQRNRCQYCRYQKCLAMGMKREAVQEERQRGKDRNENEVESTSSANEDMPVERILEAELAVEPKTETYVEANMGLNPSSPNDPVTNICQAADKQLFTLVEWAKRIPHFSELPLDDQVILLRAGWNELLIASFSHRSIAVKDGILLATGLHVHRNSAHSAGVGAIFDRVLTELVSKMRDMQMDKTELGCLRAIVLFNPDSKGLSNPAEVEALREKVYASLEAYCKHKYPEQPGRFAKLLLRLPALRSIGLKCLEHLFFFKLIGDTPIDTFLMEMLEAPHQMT
Retinoic acid receptor RXR-alpha/oxysterols receptor LXR-alpha, sequence (Q13133 whole entry): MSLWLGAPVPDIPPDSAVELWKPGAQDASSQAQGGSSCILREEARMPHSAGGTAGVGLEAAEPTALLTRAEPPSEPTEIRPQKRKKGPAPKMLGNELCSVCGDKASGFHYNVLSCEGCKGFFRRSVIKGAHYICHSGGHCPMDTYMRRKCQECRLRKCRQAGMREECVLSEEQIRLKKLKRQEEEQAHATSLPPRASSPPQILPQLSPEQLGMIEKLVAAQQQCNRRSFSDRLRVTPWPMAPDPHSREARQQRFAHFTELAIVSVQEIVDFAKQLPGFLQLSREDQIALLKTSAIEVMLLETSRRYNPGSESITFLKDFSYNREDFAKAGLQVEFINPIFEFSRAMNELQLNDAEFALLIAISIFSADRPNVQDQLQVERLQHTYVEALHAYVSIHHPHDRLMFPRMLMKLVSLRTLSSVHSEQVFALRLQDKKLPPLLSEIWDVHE
Description: Agonist activity at human RXRalpha/LXRalpha expressed in HEK293 cells measured after 20 hrs by dual luciferase reporter gene assay

[13] = tested on: A 172; experiment: Antiproliferative activity against human A 172 cells measured after 7 days by CCK8 assay; conditions: A 172, 168 h
[14] = target: Retinoic acid receptor RXR-alpha/oxysterols receptor LXR-beta (Homo sapiens, UniProt P55055)
Retinoic acid receptor RXR-alpha/oxysterols receptor LXR-beta, sequence (P19793 whole entry): as the sequence (P19793 whole entry) above
Retinoic acid receptor RXR-alpha/oxysterols receptor LXR-beta, sequence (P55055 whole entry): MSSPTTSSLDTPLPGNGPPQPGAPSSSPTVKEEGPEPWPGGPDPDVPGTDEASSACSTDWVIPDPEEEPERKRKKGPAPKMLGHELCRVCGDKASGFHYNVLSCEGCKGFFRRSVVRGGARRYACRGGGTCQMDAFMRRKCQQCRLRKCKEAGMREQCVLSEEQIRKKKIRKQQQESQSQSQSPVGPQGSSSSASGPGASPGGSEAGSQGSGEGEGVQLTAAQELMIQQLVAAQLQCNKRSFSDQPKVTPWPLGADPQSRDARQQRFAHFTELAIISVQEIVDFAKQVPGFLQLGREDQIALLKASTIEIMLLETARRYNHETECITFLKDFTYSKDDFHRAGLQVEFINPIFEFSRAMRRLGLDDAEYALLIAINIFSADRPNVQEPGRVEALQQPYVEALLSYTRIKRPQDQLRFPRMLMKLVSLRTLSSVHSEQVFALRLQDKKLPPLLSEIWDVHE
Description: Agonist activity at human RXRalpha/LXRbeta expressed in HEK293 cells measured after 20 hrs by dual luciferase reporter gene assay

[15] = tested on: U87; experiment: Agonist activity at LXR in human U87 cells overexpressing EGFR variant III assessed as up regulation of SREBP1c mRNA expression measured after 48 hrs by SYBR green staining based qRT-PCR analysis; type: cell-based; conditions: filed as agonist
[16] = tested on: U87; experiment: Agonist activity at LXR in human U87 cells overexpressing EGFR variant III assessed as up regulation of IDOL mRNA expression measured after 48 hrs by SYBR green staining based qRT-PCR analysis; type: cell-based; conditions: filed as agonist
[17] = tested on: U-87 MG; experiment: Antiproliferative activity against LXRbeta knock-down human U87 cells overexpressing EGFR variant III measured after 7 days by CCK8 assay; type: functional, cell-based; conditions: U-87MG ATCC, time 7.0 day
[18] = tested on: U87; experiment: Agonist activity at LXR in human U87 cells overexpressing EGFR variant III assessed as up regulation of APOE mRNA expression measured after 48 hrs by SYBR green staining based qRT-PCR analysis; type: cell-based; conditions: filed as agonist
[19] = tested on: U87; experiment: Agonist activity at LXR in human U87 cells overexpressing EGFR variant III assessed as up regulation of ABCG1 mRNA expression measured after 48 hrs by SYBR green staining based qRT-PCR analysis; type: cell-based; conditions: filed as agonist
[20] = Cytotoxicity against human HA1800 cells measured after 7 days by CCK8 assay; type: cell-based; conditions: ha1800, 168 h, time 7 day
[21] = tested on: U87; experiment: Agonist activity at LXR in human U87 cells overexpressing EGFR variant III assessed as up regulation of ABCA1 mRNA expression measured after 48 hrs by SYBR green staining based qRT-PCR analysis; type: cell-based; conditions: filed as agonist
[22] = tested on: HEK-293T; experiment: Cytotoxicity against HEK293T cells measured after 7 days by CCK8 assay; type: cell-based; conditions: human, 168 h, time 7 day
[23] = Homo sapiens, U-87 MG, 168 h, read-out: IC50

- IC50 ([1]; u-87mg atcc): Not Active
SMILES: CC(C)(C)OC(=O)N1CC[C@@]2(C(=O)Nc3ccccc32)[C@@H]1c1cccc(Nc2ccc(CO)c(S(C)(=O)=O)c2)c1

- MRT inf [4]: 3.48 h
- AUC(0-inf) [5]: 1410 ng·h/mL
- Tmax [6]: 0.22 h
- half-life [7]: 2.98 h
- IC50 [1, 23]: 3.75 µM
- AUC(0-t) at 24 h [8]: 1250 ng·h/mL
- Cmax [9]: 1010 ng/mL
SMILES: CC(C)(C)OC(=O)N1CCC2(C(=O)Nc3ccccc32)C1c1cccc(Nc2ccc(CO)c(S(C)(=O)=O)c2)c1 (racemic)
- Activity [2]: Non-Toxic
- Activity [3]: Active
- Activity [10]: Non-Toxic

- IC50 [1, 23]: 8.49 µM
SMILES: CC(C)(C)OC(=O)N1CCC2(C(=O)Nc3ccccc32)C1c1cccc(-c2cc(F)c(CO)c(S(C)(=O)=O)c2)c1 (centres undefined)

- IC50 ([1]; u-87mg atcc): Not Active
SMILES: CC(C)(C)OC(=O)N1CC[C@]2(C(=O)Nc3ccccc32)[C@H]1c1cccc(-c2ccc(CO)cc2)c1

- IC50 [1, 23]: 7.53 µM
SMILES: COC(=O)c1ccc(-c2cccc([C@H]3N(C(=O)OC(C)(C)C)CC[C@]34C(=O)Nc3ccccc34)c2)cc1S(C)(=O)=O

- IC50 ([1]; u-87mg atcc): Not Active
SMILES: CC(C)(C)OC(=O)N1CC[C@]2(C(=O)Nc3ccccc32)[C@H]1c1cccc(-c2cccc(S(C)(=O)=O)c2)c1

- IC50 [1, 23]: 6.36 µM
SMILES: CC(C)(C)OC(=O)N1CC[C@]2(C(=O)Nc3ccccc32)[C@H]1c1cccc(-c2ccc(CO)c(S(C)(=O)=O)c2)c1

- IC50 ([1]; u-87mg atcc): Not Active
SMILES: CC(C)(C)OC(=O)N1CC[C@@]2(C(=O)Nc3ccccc32)[C@@H]1c1cccc(-c2ccc(CO)c(S(C)(=O)=O)c2)c1

- IC50 ([1]; u-87mg atcc): Not Active
SMILES: CC(C)(C)CC(=O)N1CC[C@]2(C(=O)Nc3ccccc32)[C@H]1c1cccc(-c2ccc(CO)c(S(C)(=O)=O)c2)c1

- IC50 ([1]; u-87mg atcc): Not Active
SMILES: CC(C)(C)CC(=O)N1CCC2(C(=O)Nc3ccccc32)C1c1cccc(-c2ccc(CO)c(S(C)(=O)=O)c2)c1 (centres undefined)

- IC50 [1, 23]: 7.05 µM
SMILES: CC(C)(C)OC(=O)N1CCC2(C(=O)Nc3ccccc32)C1c1cccc(-c2ccc(CO)c(S(C)(=O)=O)c2)c1 (centres undefined)

- IC50 [1, 23]: 13.3 µM
SMILES: COC(=O)c1ccc(-c2cccc(C3N(C(=O)OC(C)(C)C)CCC34C(=O)Nc3ccccc34)c2)cc1S(C)(=O)=O (centres undefined)

More lines, now with the values behind:

SMILES: Fc1ccc(-c2c3cccc(C(F)(F)F)c3nn2Cc2ccc(F)cc2Cl)cc1 [LXR-623]
- IC50 [11]: 3.06 µM
- EC50 [12]: 0.000431 µM
- IC50 [13]: 8.3 µM
- IC50 [1, 23]: 6.14 µM
- Activity [10]: Toxic
- EC50 [14]: 0.000212 µM

SMILES: O=C(O)Cc1cccc(OCCCN(Cc2cccc(C(F)(F)F)c2Cl)CC(c2ccccc2)c2ccccc2)c1
- EC50 [12]: 0.000401 µM
- IC50 [1, 23]: 3.65 µM
- Activity [10]: Toxic
- EC50 [14]: 0.000228 µM

SMILES: CC(C)(C)OC(=O)N1CC[C@]2(C(=O)Nc3ccccc32)[C@H]1c1cccc(Nc2ccc(CO)c(S(C)(=O)=O)c2)c1
- IC50 [11]: 2.23 µM
- IC50 [13]: 6.03 µM
- Activity [15]: Dose-dependent effect
- Activity [16]: Dose-dependent effect
- Activity [17]: inactive
- Activity [18]: Dose-dependent effect
- IC50 [1, 23]: 1.78 µM
- Activity [19]: Dose-dependent effect
- Activity [20]: Non-Toxic
- Activity [21]: Dose-dependent effect
- Activity [22]: Non-Toxic

SMILES: CC(C)(C)CC(=O)N1CC[C@@]2(C(=O)Nc3ccccc32)[C@@H]1c1cccc(-c2ccc(CO)c(S(C)(=O)=O)c2)c1
- IC50 ([1]; u-87mg atcc): Not Active

SMILES: CC(C)(C)OC(=O)N1CCC2(C(=O)Nc3ccccc32)C1c1cccc(-c2ccccc2)c1 (centres undefined)
- IC50 [1, 23]: 22.6 µM

SMILES: CC(C)(C)OC(=O)N1CC[C@@]2(C(=O)Nc3ccccc32)[C@@H]1c1cccc(-c2cc(F)c(CO)c(S(C)(=O)=O)c2)c1
- IC50 ([1]; u-87mg atcc): Not Active

SMILES: CN(C)C(=O)c1ccc(-c2cccc([C@H]3N(C(=O)OC(C)(C)C)CC[C@]34C(=O)Nc3ccccc34)c2)cc1Cl
- IC50 ([1]; u-87mg atcc): Not Active

SMILES: CC(C)(C)OC(=O)N1CC[C@]2(C(=O)Nc3ccccc32)[C@H]1c1cccc(-c2cc(F)c(CO)c(S(C)(=O)=O)c2)c1
- IC50 [1, 23]: 7.78 µM

SMILES: CC(C)(C)OC(=O)N1CC[C@@]2(C(=O)Nc3ccccc32)[C@@H]1c1cccc(-c2ccccc2)c1
- IC50 ([1]; u-87mg atcc): Not Active

SMILES: COC(=O)c1ccc(-c2cccc([C@@H]3N(C(=O)OC(C)(C)C)CC[C@@]34C(=O)Nc3ccccc34)c2)cc1S(C)(=O)=O
- IC50 ([1]; u-87mg atcc): Not Active
